{"source": "patent EP0458214A1", "about": "“Bicyclic 1-azacycloalcanes” (BOEHRINGER INGELHEIM KG, priority 1990, dated 1991)", "key": {"muskarinen Rezeptoren": {"biological_target": "muskarinen Rezeptoren", "assay": "Receptor binding studies (Tabelle A), radioligand displacement", "conditions": "Radioligand L(+)cis-[2-Methyl-³H]-N,N,N-trimethyl-1, 3-dioxolan-4-methanammonium-jodid; Organ: Cerebraler Cortex (Ratte)", "text": "Die zur Synthese notwendigen Ausgangsverbindungen, die entsprechenden Hydroxyazabicycloalkane, sind aus dem Stand der Technik bekannt, [drawing 9] so z.B. für n = O aus JACS 74, 2215 (1952) (IIa), J. Org. Chem. 33, 4376 (1968) (IIb), der europäischen Patentanmeldung 307 140 (III) und J. Pharm. Science 52, 331 (1954) (IV). Ausgangsverbindungen (R = H), in denen n = 1 oder 2 bedeutet, sind durch Reduktion der entsprechenden Alkylester (X -R = COOAlkyl) erhältlich. Ausgehend von den entsprechenden Ketonen lassen sich die Thiole der allgemeinen Formeln II und III in Analogie zu dem in J. Chem. 43, 1965 beschriebenen Verfahren herstellen. Ist R in der allgemeinen Formel I ein aromatischer oder heteroaromatischer Rest, so können die Verbindungen der allgemeinen Formel I unter Anwendung der Mitsunobu Reaktion (O. Mitusunobu in Synthesis, 1, 1981, Georg Thieme Verlag, Stuttgart; J. C. S. Perkin I, Seite 462, 1975) durch Umsetzung der entsprechenden hydroxysubstituierten Reaktanden (Formel I R=H, Reagenz HOR, R=Phenyl,Heterocyclus) in Gegenwart von Azodicarbonsäurediethylester und Triphenylphospin erhalten werden. Die Umsetzung erfolgt im allgemeinen in inerten organischen Lösungsmitteln bei Raumtemperatur. Die Verbindungen der allgemeinen Formel I besitzen wertvolle pharmakologische Eigenschaften. So zeigen die Verbindungen in Bindungsstudien Affinitäten zu muskarinen Rezeptoren und muskarin-agonistische GTP-Shifts (GTP = Guanosintriphosphat). (Birdsall, N.I.M., E.C. Hulme and I.M. Stockton 1984 in T.I.P.S. Supplement, Proc. Internat. Symposium on Subtypes of Muscarinic Receptors, Ed. Hirschowitz, Hammer, Giacchetti, Klirns, Levine; Elsevier p. 4 - 8).\nDie Rezeptorbindungsstudien wurden gemäß dem nachstehenden Literaturzitat ausgeführt [A. Closse, H. Bittiger, D. Langenegger und A. Wahner; Naunyn-Schmiedeberg's Arch. Pharmacol. 335, 372 - 377 (1987)].\nRadioligand: L(+)cis-[2-Methyl-³H]-N,N,N-trimethyl-1, 3-dioxolan-4-methanammonium-jodid NET-647, Fa. NEN (New England Nuclear DU PONT). Organ: Cerebraler Cortex (Ratte)"}, "Muskarinsubtypen M₁": {"biological_target": "T1, Muskarinsubtypen M₁ (Rattus norvegicus, UniProt P08482)", "T1 sequence (P08482 1-460)": "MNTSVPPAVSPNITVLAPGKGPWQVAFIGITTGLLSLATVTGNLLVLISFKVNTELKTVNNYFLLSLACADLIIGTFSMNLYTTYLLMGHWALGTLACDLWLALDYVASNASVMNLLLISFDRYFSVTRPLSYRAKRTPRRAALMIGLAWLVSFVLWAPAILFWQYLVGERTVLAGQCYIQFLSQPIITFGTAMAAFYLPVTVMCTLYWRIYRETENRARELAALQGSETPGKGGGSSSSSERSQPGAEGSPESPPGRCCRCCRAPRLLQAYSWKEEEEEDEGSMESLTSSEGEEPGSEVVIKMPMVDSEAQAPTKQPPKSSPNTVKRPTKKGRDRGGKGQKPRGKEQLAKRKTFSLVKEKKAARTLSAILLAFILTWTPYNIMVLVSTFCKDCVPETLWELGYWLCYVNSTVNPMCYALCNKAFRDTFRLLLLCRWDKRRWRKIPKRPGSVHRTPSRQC", "assay": "Binding studies at muscarinic subtypes", "parameters": "species or system Ratte", "conditions": "gegenüber dem Razemat und dem (-)-Enantiomer"}, "Muskarinsubtypen M₂": {"biological_target": "T2, Muskarinsubtypen M₂ (Rattus norvegicus, UniProt P10980)", "T2 sequence (P10980 1-466)": "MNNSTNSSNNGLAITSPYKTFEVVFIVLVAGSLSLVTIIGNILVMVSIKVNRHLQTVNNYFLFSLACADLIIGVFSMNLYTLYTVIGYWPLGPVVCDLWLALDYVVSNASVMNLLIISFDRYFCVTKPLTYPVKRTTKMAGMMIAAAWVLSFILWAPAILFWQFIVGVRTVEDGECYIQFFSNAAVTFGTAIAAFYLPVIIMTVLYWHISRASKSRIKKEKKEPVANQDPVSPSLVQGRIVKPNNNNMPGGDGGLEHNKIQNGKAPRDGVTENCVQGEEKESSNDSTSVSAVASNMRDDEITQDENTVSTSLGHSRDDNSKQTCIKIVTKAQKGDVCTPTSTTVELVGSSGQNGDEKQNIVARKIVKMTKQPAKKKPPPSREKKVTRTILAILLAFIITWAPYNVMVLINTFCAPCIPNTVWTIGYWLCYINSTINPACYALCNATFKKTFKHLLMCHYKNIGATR", "assay": "Binding studies at muscarinic subtypes", "parameters": "species or system Ratte", "conditions": "gegenüber dem Razemat und dem (-)-Enantiomer"}, "Muskarinsubtypen M₃": {"biological_target": "Muskarinsubtypen M₃ (Rattus norvegicus, UniProt P08483)", "sequence (P08483 whole entry)": "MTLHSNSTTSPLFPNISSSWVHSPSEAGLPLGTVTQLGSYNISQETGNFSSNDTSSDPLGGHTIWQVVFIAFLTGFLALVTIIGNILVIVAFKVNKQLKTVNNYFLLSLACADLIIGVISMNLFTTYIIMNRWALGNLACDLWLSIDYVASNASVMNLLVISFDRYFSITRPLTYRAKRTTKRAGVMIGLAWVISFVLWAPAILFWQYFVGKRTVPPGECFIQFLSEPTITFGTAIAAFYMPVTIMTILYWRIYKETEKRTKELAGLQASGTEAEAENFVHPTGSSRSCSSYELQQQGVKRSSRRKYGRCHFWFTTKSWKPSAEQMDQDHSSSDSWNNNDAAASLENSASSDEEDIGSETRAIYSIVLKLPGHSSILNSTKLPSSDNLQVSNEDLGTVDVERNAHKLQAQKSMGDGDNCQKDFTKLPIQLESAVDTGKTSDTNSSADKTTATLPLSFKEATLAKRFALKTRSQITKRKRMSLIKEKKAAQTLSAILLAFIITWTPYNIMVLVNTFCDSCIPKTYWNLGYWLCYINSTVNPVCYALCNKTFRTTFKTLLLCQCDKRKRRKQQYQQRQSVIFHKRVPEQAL", "assay": "Binding studies at muscarinic subtypes", "parameters": "species or system Ratte", "conditions": "gegenüber dem Razemat und dem (-)-Enantiomer"}, "human-m₁-Rezeptorsubtyp": {"biological_target": "T3, human-m₁-Rezeptorsubtyp (Homo sapiens, UniProt P11229)", "T3 construct": "expressed in transfected cells; host or cells: CHO cells", "T3 sequence (P11229 1-460)": "T1 sequence (P08482 1-460) with V5A, S254T, S309P, K320R, G337A, V413I", "assay": "Stimulation of phosphatidylinositol turnover in CHO cell cultures", "format": "cell-based", "conditions": "CHO-Zellkulturen mit human-m₁-Rezeptorsubtyp; gegenüber dem Razemat und dem (-)-Enantiomer"}, "Kaninchen": {"tested_on": "Kaninchen", "assay": "Cholinomimetic in vivo activity by EEG (theta wave increase)", "text": "Die cholinomimetische in-vivo-Wirksamkeit von (+)-(Propargyloxymethyl)-1-aza-bicyclo- [2.2.2]octan wurde am Kaninchen mittels EEG (Thetawellenzunahme) nachgewiesen."}}, "note": "Residue numbers refer to the chain shown, from its start."}
{"compound": "c1ccc(COC2CN3CCC2CC3)cc1", "note": "(racemic) [Beispiel 4]", "values": [{"measurement": "Ki", "setting": "muskarinen Rezeptoren", "result": 229, "unit": "nM"}]}
{"compound": "C#CCOCC1CN2CCC1CC2", "note": "(single isomer, unassigned; (+)) [(+)-3-(Propargyloxymethyl)-1-azabicyclo[2.2.2]octan]", "values": [{"measurement": "Bindungsstudien M₁: Wirksamkeit in vitro", "setting": "Muskarinsubtypen M₁", "result": "stärker wirksam"}, {"measurement": "Bindungsstudien M₂: Wirksamkeit in vitro", "setting": "Muskarinsubtypen M₂", "result": "stärker wirksam"}, {"measurement": "Bindungsstudien M₃: Wirksamkeit in vitro", "setting": "Muskarinsubtypen M₃", "result": "stärker wirksam"}, {"measurement": "Stimulation des Phosphatidylinositol-turnovers", "setting": "human-m₁-Rezeptorsubtyp", "result": "stärker wirksam"}, {"measurement": "cholinomimetische in-vivo-Wirksamkeit (Thetawellenzunahme)", "setting": "Kaninchen", "result": "nachgewiesen"}]}
{"compound": "c1cncc(OC2CN3CCC2CC3)c1", "note": "(centres unmarked) [Beispiel 1]", "values": [{"measurement": "Ki", "setting": "muskarinen Rezeptoren", "result": 120, "unit": "nM"}]}
{"compound": "c1ccc(OC2CN3CCC2CC3)cc1", "note": "(centres unmarked) [Beispiel 9, 3-Phenoxy-1-azabicyclo[2.2.2]octan]", "values": [{"measurement": "Ki", "setting": "muskarinen Rezeptoren", "result": 89, "unit": "nM"}]}
